{"source": "patent US12509438B2", "about": "“Pyrazole derivative” (Aptabio Therapeutics Inc., priority 2020, dated 2025)", "key": {"αSMA [1]": {"test_system": "αSMA", "experiment": "Expression of αSMA induced by TGF-β1 in LX-2 cells (immunocytochemistry)", "assay_type": "cell-based, human", "details": "compound 5 μM, TGF-β1 10 ng/ml, FIG. 3a/3b", "text": "(§1) In order to confirm whether the synthetic example compound of the present invention affects differentiation of fibroblasts into myofibroblasts, the inhibitory effect of the synthetic example compound for increasing expression of αSMA (a biomarker for confirming differentiation into myofibroblasts) induced by TGF-β1 for HL-60 cells (Korean Cell Line Bank), HFF-1 (human foreskin fibroblast, ATCC), NHLF (normal human lung fibroblast, Lonza), LX-2 (human hepatic stellate cells, Sigma), ARPE19 (human retinal pigment epithelial cell, ATCC), KEL-FIB (Keloid fibroblast, ATCC) cells was to be observed.\n(§2) Each cell was suspended in a DMEM medium comprising 10% FBS and aliquoted on a 4-well chamber slide (Nunc) at a concentration of 1×10^4 cells/well, and the synthetic example compound and TGF-β1(TGF 131, TGF-β are all same meanings) were treated to prepare cells to be used for confirmation of αSMA expression. […] After performing fixation with 4% paraformaldehyde for 10 minutes and permeabilization using 0.1% Triton x-100 for the cells, the process of treating a primary antibody (anti-αSMA Ab, 1:200, at 4° C. for 16 hours) and a secondary antibody (Alexa-594 conjugated Ab, 1:800, at a room temperature for 1 hour) against αSMA was progressed sequentially, and then the level of expression of αSMA was observed by using a fluorescence microscope."}, "IL-1β [2]": {"test_system": "IL-1β", "experiment": "Expression of IL-1β induced by LPS in NHLF cells (RT-PCR)", "assay_type": "cell-based, human", "details": "30 min pretreatment, LPS 6 hours, FIG. 5", "method": "(§3) After inoculating a 2×10^5 number of cells in a 6 well plate and culturing for 24 hours and then further culturing in a culture solution without serum for 16 hours, the Synthetic example 3 compound was pretreated according to each condition for 30 minutes and inflammation reaction was induced by LPS for 6 hours. The expression of IL-1β was confirmed by using RT-PCR. The total RNA was separated from the cells by using RNeasy mini kit (Qiagen) and from the separated RNA 2 ug, cDNA was synthesized by using PrimeScript™ II 1st strand cDNA synthesis kit (TaKaRa) and then PCR was performed by AccuPower® PCR PreMix (Bioneer) to amplify genes. The sequence for target primers is as follows. IL-1β (forward: 5′-[…]-3′, reverse: 5′-[…]-3′); GAPDH (forward: 5′-[…]-3′, reverse: 5′-[…]-3′); β-actin (forward: 5′-[…]-3′, reverse: 5′-[…]-3′). The PCR product was confirmed by electrophoresis in 1.5% agarose gel."}, "αSMA [3]": {"test_system": "αSMA", "experiment": "Expression of αSMA induced by TGF-β1 in NHLF cells (immunocytochemistry)", "assay_type": "cell-based, human", "details": "compound 5 μM, TGF-β1 10 ng/ml, FIG. 3a/3b", "text": "as §1, §2"}, "αSMA [4]": {"test_system": "αSMA", "experiment": "Expression of αSMA induced by TGF-β1 in ARPE19 cells (immunocytochemistry)", "assay_type": "cell-based, human", "details": "compound 5 μM, TGF-β1 10 ng/ml, FIG. 3a/3b", "text": "as §1\nas §2, with “microscope. […]” for “microscope.”"}, "αSMA [5]": {"test_system": "αSMA", "experiment": "Expression of αSMA induced by TGF-β1 in KEL-FIB cells (immunocytochemistry)", "assay_type": "cell-based", "details": "compound 5 μM, TGF-β1 10 ng/ml, FIG. 3a/3b", "text": "as §1, §2"}, "NHLF cells": {"test_system": "NHLF cells", "experiment": "ROS production in NHLF cells (L-012 or DCF-DA)", "assay_type": "cell-based, human", "details": "FIG. 1", "text": "(§4) In order to confirm an effect of the synthetic example compounds on ROS production from fibroblasts and specific substrate cells, ROS production was induced by stimulation of PMA (phorbol 12-myristate 13-acetate), TGF-β1, palmitate or high concentration-glucose, or the like for HL-60 cells (Korean Cell Line Bank), NHLF(normal human lung fibroblast, Lonza), LX-2 (human hepatic stellate cells, Sigma), ARPE19 (human retinal pigment epithelial cell, ATCC), KEL-FIB (Keloid fibroblast, ATCC) cells differentiated into neutrophil cells by treatment of DMSO, and the inhibitory effect of ROS production of the synthetic example compounds was observed under this condition.\n(§5) NHLF (normal human lung fibroblast, Lonza), LX-2 (human hepatic stellate cells, Sigma), ARPE19 (human retinal pigment epithelial cell, ATCC), KEL-FIB (keloid fibroblast, ATCC) cells were suspended in a culture medium comprising 10% FBS and aliquoted in a 96 well plate, and then cultured under the condition of 5% CO2, 37° C. for 24 hours. The synthetic example compound was pretreated from 30 minutes to 1 hour, and then a ROS stimulus was treated to each well comprising cells and a drug. After additional culturing for 48 hours, the level of ROS production was confirmed by using L-012 or DCF-DA."}, "αSMA [6]": {"test_system": "αSMA", "experiment": "Expression of αSMA induced by TGF-β1 in HFF-1 cells (immunocytochemistry)", "assay_type": "cell-based, human", "details": "compound 5 μM, TGF-β1 10 ng/ml, FIG. 3a/3b", "text": "as §1, §2"}, "CTGF gene": {"test_system": "CTGF gene", "experiment": "CTGF gene expression induced by TGF-β1 in KEL-FIB keloid fibroblasts (qRT-PCR)", "assay_type": "cell-based", "details": "KEL-FIB cells; 5 μM or 10 μM compound; 2 ng/ml TGF-β1; 24 or 48 hours", "method": "(§6) In order to confirm the effect on the process of producing extracellular matrix from keloid fibroblasts of the synthetic example compound, the expression change of an extracellular matrix formation promoting factor, CTGF and a representative extracellular matrix, collagen type I according to treatment of the Synthetic example 3 compound for KEL-FIB (keloid fibroblast) cells was analyzed at a gene level.\n(§7) The KEL-FIB cell line was adapted in a DMEM comprising 2% FBS for 24 hours and then the Synthetic example 3 compound at a concentration of ? 5 μM or 10 μM was pretreated for 1 hour. For inducing expression of CTGF and collagen type I genes, 2 ng/ml TGF-β1 was treated and mRNA was extracted from the cells after 24 or 48 hours. The presence of mRNA and expression level of CTGF and collagen type 1 genes were confirmed by qRT-PCR (Quantitative real-time PCR)."}, "LX-2 cells": {"test_system": "LX-2 cells", "experiment": "ROS production in LX-2 cells (L-012 or DCF-DA)", "assay_type": "cell-based, human", "details": "FIG. 1", "text": "as §4, §5"}, "IL-1β [7]": {"test_system": "IL-1β", "experiment": "Expression of IL-1β induced by LPS in LX-2 cells (RT-PCR)", "assay_type": "cell-based, human", "details": "30 min pretreatment, LPS 6 hours, FIG. 5", "method": "as §3"}, "N27 cells": {"test_system": "N27 cells", "experiment": "ROS production induced by MPP+ in N27 dopaminergic nerve cells (DCF-DA)", "assay_type": "cell-based, rat", "details": "compound 1 μM, 24 hours, FIG. 4", "text": "The high ROS level in nerve cells induces oxidized lipids, and this is known as an important element for nerve cell death. In order to confirm the effect of the synthetic example compound on ROS production from dopaminergic nerve cells, ROS production was induced by stimulation of MPP+(1-methyl-4-phenylptridinium) for N27 (rat dopaminergic neural cell, Sigma) cells, and the inhibitory effect of ROS production of the synthetic example compound was observed under this condition.\nN27 cells were cultured in a RPMI medium comprising 10% FBS, […], and the cultured cells were aliquoted in a 6 well plate at a concentration of 5×10^3˜6×10^3 cells/well. The ROS production stimuli, MPP+ (1-methyl-4-phenylptridinium) and Synthetic example compound 3 (1 μM) were treated into the cells. In 24 hours after treating the synthetic example compound, by measuring fluorescence of each well using DCF-DA, the ROS production level was confirmed."}, "collagen type I gene": {"test_system": "collagen type I gene", "experiment": "Collagen type I gene expression induced by TGF-β1 in KEL-FIB keloid fibroblasts (qRT-PCR)", "assay_type": "cell-based", "details": "KEL-FIB cells; 5 μM or 10 μM compound; 2 ng/ml TGF-β1; 24 or 48 hours", "method": "as §6, §7"}}}
{"smiles": "Oc1c2c(nn1-c1ccccn1)CN(Cc1ccccc1)CC2", "note": "[Synthetic example 3, 6-benzyl-2-(pyridin-2-yl)-4,5,6,7-tetrahydro-2H-pyrazolo[3,4-c]pyridin-3-ol]", "values": [{"measurement": "inhibition of increase of expression of αSMA induced by TGF-β1", "setting": "αSMA [1]", "result": "significantly inhibited"}, {"measurement": "inhibition of IL-1β induced by LPS", "setting": "IL-1β [2]", "result": "effectively inhibited in a concentration-dependent manner"}, {"measurement": "inhibition of increase of expression of αSMA induced by TGF-β1", "setting": "αSMA [3]", "result": "significantly inhibited"}, {"measurement": "inhibition of increase of expression of αSMA induced by TGF-β1", "setting": "αSMA [4]", "result": "significantly inhibited"}, {"measurement": "inhibition of increase of expression of αSMA induced by TGF-β1", "setting": "αSMA [5]", "result": "significantly inhibited"}, {"measurement": "inhibition of ROS production induced by PMA", "setting": "NHLF cells", "result": "inhibited ROS production"}, {"measurement": "inhibition of increase of expression of αSMA induced by TGF-β1", "setting": "αSMA [6]", "result": "significantly inhibited"}, {"measurement": "inhibition of expression of the CTGF gene", "setting": "CTGF gene", "result": 76, "unit": "%"}, {"measurement": "inhibition of ROS production induced by PMA", "setting": "LX-2 cells", "result": "inhibited ROS production"}, {"measurement": "inhibition of IL-1β induced by LPS", "setting": "IL-1β [7]", "result": "effectively inhibited in a concentration-dependent manner"}, {"measurement": "inhibition of ROS production induced by MPP+", "setting": "N27 cells", "result": "inhibiting production of ROS"}, {"measurement": "inhibition of expression of the collagen type I gene", "setting": "collagen type I gene", "result": 75, "unit": "%"}]}
